ChEMBL document CHEMBL4507274 (2021)

Legend:
[1] = molecular target: Tyrosine-protein kinase SYK (Homo sapiens) (UniProt P43405); details: Compound concentration 100.0 nM
[2] = molecular target: Testis-specific serine/threonine-protein kinase 1 (Homo sapiens) (UniProt Q9BXA7); details: Compound concentration 100.0 nM
[3] = molecular target: Phosphatidylinositol 4,5-bisphosphate 3-kinase catalytic subunit delta isoform (Homo sapiens) (UniProt O00329); details: Compound concentration 100.0 nM
[4] = molecular target: Calcium/calmodulin-dependent protein kinase type 1 (Homo sapiens) (UniProt Q14012); details: Compound concentration 100.0 nM
[5] = molecular target: Tyrosine-protein kinase Blk (Homo sapiens) (UniProt P51451); details: Compound concentration 100.0 nM
[6] = molecular target: T1, Mitogen-activated protein kinase 13 (Homo sapiens) (UniProt O15264); details: Compound concentration 100.0 nM
T1 sequence (whole entry): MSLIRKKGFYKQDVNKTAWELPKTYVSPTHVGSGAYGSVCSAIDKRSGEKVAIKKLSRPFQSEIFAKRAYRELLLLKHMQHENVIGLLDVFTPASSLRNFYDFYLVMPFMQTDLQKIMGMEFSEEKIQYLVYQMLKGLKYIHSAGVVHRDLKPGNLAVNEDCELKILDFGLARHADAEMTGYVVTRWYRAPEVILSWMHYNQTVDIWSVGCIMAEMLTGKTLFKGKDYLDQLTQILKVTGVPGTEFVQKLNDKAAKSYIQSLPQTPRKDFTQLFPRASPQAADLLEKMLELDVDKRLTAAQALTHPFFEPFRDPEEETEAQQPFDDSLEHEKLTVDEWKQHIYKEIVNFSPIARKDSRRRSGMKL

[7] = test system: Mast/stem cell growth factor receptor Kit (Homo sapiens), P10721 [D816V]; details: Compound concentration 100.0 nM
[8] = molecular target: STE20/SPS1-related proline-alanine-rich protein kinase (Homo sapiens) (UniProt Q9UEW8); details: Compound concentration 100.0 nM
[9] = molecular target: Inhibitor of nuclear factor kappa-B kinase subunit beta (Homo sapiens) (UniProt O14920); details: Compound concentration 100.0 nM
[10] = molecular target: Cyclin-dependent kinase-like 5 (Homo sapiens) (UniProt O76039); details: Compound concentration 100.0 nM
[11] = molecular target: T2, Serine/threonine-protein kinase D1 (Homo sapiens) (UniProt Q15139); details: Compound concentration 100.0 nM
T2 sequence (whole entry): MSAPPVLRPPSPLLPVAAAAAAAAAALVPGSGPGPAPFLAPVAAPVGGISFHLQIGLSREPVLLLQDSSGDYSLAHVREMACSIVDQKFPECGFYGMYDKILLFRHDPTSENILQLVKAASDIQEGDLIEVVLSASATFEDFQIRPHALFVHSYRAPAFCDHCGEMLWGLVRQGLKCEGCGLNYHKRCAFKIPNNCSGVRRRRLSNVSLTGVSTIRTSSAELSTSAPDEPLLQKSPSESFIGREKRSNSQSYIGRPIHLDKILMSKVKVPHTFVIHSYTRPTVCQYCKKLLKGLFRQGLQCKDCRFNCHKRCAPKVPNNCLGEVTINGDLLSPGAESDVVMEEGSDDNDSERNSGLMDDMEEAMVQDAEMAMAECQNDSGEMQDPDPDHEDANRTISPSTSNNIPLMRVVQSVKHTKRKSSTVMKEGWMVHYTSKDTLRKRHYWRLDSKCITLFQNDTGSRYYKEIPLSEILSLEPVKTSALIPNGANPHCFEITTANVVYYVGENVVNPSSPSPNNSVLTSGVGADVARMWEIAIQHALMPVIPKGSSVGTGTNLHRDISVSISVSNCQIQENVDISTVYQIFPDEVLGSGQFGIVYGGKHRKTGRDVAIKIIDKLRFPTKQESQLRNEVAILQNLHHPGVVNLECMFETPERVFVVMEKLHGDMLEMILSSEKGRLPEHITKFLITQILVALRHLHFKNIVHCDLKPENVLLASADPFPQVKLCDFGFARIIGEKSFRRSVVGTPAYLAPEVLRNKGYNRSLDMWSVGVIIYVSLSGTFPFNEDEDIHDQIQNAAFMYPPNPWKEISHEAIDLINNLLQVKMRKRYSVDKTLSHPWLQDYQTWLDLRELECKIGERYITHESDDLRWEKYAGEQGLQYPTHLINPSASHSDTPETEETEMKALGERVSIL

[12] = molecular target: TGF-beta receptor type-2 (Homo sapiens) (UniProt P37173); details: Compound concentration 100.0 nM
[13] = molecular target: Serine/threonine-protein kinase Nek7 (Homo sapiens) (UniProt Q8TDX7); details: Compound concentration 100.0 nM
[14] = molecular target: Muscarinic acetylcholine receptor M3 (Homo sapiens) (UniProt P20309); details: Compound concentration 10.0 uM
[15] = molecular target: T3, Serine/threonine-protein kinase Nek2 (Homo sapiens) (UniProt P51955); details: Compound concentration 100.0 nM
T3 sequence (whole entry): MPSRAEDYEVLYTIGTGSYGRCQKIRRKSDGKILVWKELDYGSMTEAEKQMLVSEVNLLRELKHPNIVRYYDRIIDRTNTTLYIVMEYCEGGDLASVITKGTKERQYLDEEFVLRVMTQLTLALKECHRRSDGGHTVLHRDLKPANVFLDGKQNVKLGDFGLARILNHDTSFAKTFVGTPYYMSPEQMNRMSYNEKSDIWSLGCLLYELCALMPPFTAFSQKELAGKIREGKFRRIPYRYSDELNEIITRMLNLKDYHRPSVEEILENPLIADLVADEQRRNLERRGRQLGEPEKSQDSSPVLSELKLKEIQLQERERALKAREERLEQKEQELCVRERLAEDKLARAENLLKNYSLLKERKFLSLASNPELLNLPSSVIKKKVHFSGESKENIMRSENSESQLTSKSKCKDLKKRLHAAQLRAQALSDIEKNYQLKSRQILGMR

[16] = molecular target: Myosin light chain kinase, smooth muscle (Homo sapiens) (UniProt Q15746); details: Compound concentration 100.0 nM
[17] = test system: Phosphatidylinositol 4,5-bisphosphate 3-kinase catalytic subunit alpha isoform (Homo sapiens), P42336 [H1047L]; details: Compound concentration 100.0 nM
[18] = molecular target: Ribosomal protein S6 kinase alpha-1 (Homo sapiens) (UniProt Q15418); details: Compound concentration 100.0 nM
[19] = molecular target: Serine/threonine-protein kinase DCLK1 (Homo sapiens) (UniProt O15075); details: Compound concentration 100.0 nM
[20] = molecular target: Serine/threonine-protein kinase RIO2 (Homo sapiens) (UniProt Q9BVS4); details: Compound concentration 100.0 nM
Chain of Serine/threonine-protein kinase RIO2 (Homo sapiens) (Q9BVS4 whole entry, looked up): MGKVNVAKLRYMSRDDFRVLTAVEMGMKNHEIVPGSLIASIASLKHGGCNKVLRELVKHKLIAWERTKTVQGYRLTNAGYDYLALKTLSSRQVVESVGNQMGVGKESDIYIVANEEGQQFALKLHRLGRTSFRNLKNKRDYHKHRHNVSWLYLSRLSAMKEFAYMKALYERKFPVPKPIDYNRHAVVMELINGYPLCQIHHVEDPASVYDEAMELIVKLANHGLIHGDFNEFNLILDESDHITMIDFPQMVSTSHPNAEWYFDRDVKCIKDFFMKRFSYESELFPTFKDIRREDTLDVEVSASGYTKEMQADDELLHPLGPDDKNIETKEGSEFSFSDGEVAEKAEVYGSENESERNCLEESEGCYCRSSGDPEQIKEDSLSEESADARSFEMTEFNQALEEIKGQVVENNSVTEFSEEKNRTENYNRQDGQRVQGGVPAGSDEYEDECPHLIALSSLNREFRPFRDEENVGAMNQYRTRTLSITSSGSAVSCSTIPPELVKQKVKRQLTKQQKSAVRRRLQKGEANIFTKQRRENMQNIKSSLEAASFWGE

Chain of Inhibitor of nuclear factor kappa-B kinase subunit beta (Homo sapiens) (O14920 whole entry): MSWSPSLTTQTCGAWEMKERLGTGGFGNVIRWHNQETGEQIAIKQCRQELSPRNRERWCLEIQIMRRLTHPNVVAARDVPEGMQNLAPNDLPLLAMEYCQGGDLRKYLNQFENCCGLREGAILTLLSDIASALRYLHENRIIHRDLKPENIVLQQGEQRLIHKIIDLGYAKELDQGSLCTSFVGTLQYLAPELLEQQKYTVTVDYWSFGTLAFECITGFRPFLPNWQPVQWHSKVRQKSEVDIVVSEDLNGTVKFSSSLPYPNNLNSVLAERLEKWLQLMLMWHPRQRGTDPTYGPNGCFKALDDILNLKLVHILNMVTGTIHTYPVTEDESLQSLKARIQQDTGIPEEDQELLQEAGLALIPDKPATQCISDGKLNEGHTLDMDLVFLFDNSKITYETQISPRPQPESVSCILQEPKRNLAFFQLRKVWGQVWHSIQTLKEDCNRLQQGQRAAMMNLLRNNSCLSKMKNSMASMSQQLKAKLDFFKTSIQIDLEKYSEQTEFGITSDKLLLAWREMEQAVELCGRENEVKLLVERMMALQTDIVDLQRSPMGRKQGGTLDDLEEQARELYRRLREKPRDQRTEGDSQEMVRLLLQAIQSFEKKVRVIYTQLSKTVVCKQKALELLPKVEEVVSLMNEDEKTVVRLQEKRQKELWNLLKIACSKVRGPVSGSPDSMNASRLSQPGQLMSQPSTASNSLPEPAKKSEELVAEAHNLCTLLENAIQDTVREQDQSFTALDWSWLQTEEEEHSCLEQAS
Chain of Cyclin-dependent kinase-like 5 (Homo sapiens) (O76039 whole entry): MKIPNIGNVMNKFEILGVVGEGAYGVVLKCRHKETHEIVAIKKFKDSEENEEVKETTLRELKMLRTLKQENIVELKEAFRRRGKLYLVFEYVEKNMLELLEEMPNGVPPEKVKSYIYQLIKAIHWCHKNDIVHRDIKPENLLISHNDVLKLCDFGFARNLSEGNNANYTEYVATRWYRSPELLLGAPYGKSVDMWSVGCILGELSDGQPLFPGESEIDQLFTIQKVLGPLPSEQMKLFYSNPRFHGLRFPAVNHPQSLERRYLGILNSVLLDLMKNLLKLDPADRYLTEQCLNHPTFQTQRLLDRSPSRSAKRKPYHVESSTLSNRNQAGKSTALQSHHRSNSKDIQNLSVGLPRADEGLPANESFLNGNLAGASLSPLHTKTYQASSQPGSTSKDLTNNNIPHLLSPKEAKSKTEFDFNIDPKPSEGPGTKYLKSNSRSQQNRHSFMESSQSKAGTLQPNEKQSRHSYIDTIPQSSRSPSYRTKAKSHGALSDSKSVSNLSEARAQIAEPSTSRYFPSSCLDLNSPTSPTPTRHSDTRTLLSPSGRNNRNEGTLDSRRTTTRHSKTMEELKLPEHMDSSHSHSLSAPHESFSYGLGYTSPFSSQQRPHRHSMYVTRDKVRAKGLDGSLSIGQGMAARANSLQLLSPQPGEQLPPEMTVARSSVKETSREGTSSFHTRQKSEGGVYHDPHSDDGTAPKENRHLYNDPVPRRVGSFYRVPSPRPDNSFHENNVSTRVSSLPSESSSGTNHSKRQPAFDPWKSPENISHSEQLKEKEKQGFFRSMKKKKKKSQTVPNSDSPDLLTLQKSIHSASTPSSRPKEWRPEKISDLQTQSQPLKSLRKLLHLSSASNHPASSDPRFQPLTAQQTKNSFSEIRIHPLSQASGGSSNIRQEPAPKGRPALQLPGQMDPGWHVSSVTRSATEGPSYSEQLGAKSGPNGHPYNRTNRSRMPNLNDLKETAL
Chain of Phosphatidylinositol 4,5-bisphosphate 3-kinase catalytic subunit delta isoform (Homo sapiens) (O00329 whole entry, canonical isoform): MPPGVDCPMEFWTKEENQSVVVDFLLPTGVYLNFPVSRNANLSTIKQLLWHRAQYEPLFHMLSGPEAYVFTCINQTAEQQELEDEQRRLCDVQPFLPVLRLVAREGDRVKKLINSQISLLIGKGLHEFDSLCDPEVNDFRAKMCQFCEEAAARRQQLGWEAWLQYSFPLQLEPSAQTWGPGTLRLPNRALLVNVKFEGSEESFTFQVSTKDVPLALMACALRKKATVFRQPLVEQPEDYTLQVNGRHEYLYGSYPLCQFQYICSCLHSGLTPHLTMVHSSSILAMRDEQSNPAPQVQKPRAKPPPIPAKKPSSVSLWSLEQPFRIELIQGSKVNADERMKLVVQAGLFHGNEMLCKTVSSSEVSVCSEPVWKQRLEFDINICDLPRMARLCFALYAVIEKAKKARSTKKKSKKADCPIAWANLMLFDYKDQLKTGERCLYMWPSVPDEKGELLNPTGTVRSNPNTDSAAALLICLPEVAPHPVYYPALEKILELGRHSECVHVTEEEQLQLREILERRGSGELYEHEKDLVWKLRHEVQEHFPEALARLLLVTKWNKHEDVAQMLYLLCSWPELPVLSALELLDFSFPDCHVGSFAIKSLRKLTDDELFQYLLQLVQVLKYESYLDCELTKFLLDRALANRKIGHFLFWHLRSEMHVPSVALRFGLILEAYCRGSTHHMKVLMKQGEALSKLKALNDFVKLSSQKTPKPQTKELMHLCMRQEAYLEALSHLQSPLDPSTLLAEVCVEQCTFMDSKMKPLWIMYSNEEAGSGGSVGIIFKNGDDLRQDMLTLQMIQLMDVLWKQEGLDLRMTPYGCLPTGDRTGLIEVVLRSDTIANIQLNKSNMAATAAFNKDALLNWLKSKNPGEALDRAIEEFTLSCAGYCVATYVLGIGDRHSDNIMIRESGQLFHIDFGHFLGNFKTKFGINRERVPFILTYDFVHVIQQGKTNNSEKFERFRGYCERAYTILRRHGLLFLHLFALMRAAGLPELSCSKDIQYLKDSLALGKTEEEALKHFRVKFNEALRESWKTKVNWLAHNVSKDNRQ
Chain of Calcium/calmodulin-dependent protein kinase type 1 (Homo sapiens) (Q14012 whole entry, looked up): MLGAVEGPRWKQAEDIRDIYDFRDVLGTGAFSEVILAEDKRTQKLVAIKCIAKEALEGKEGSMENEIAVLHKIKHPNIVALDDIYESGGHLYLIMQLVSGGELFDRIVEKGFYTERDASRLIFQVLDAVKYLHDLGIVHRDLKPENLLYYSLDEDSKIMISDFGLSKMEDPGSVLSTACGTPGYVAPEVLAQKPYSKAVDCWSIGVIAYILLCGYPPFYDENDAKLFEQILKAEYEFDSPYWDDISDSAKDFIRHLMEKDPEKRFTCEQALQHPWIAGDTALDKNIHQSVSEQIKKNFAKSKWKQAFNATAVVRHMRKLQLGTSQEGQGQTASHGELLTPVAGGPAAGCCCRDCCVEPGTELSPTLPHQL
Chain of Testis-specific serine/threonine-protein kinase 1 (Homo sapiens) (Q9BXA7 whole entry, canonical isoform): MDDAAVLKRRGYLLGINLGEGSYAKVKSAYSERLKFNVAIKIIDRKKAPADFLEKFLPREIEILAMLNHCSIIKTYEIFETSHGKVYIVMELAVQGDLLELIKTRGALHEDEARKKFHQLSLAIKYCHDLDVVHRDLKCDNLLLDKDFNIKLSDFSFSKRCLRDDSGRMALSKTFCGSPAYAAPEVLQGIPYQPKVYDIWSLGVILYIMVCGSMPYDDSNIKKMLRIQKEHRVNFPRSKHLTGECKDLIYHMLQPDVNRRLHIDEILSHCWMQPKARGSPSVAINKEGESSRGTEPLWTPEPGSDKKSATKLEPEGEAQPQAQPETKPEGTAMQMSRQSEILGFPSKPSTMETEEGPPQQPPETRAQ
Chain of Ribosomal protein S6 kinase alpha-1 (Homo sapiens) (Q15418 whole entry): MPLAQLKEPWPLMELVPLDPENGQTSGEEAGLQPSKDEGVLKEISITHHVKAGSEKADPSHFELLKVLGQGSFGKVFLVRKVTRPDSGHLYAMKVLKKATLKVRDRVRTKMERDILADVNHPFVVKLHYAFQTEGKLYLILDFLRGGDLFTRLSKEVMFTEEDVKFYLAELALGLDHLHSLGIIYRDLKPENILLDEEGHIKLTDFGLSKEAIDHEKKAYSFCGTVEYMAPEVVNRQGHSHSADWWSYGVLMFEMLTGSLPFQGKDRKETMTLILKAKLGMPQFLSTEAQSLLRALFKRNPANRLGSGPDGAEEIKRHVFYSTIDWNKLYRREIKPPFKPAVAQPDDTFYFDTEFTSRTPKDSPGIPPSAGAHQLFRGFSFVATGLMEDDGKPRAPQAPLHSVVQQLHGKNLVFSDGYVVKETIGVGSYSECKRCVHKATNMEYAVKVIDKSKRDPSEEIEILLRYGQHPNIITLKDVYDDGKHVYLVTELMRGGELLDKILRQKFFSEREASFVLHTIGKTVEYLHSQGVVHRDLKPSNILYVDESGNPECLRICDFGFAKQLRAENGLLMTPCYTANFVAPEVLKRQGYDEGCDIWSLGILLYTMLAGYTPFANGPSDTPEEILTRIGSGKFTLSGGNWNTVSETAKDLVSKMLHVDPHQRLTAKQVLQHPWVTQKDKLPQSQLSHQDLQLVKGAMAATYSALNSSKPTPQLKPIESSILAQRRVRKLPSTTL

Cn1cc(Cl)c2c(Oc3c(F)cc(Nc4cc(Cl)nc(N)n4)cc3F)ccnc21 [BAY-4900]
inactive: residual activity [1] 100% | residual activity [2] 100% | residual activity [3] 51% | residual activity [4] 100% | residual activity [5] 96% | residual activity [6] 95% | residual activity [7] 97% | residual activity [8] 100% | residual activity [9] 87% | residual activity [10] 78% | residual activity [11] 74% | residual activity [12] 90% | residual activity [13] 100% | inhibition [14] -4.88% | residual activity [15] 100% | residual activity [16] 95% | residual activity [17] 83% | residual activity [18] 86% | residual activity [19] 85% | residual activity [20] 100%

Cc1c[nH]c2nccc(Oc3c(F)cc(Nc4cc(Cl)nc(N)n4)cc3F)c12 [BAY-549]
inactive: residual activity [1] 100% | residual activity [2] 95% | residual activity [3] 51% | residual activity [4] 92% | residual activity [5] 90% | residual activity [6] 89% | residual activity [7] 100% | residual activity [8] 94% | residual activity [9] 69% | residual activity [10] 73% | residual activity [11] 55% | residual activity [12] 100% | residual activity [13] 100% | inhibition [14] -0.34% | residual activity [15] 97% | residual activity [16] 80% | residual activity [17] 81% | residual activity [18] 91% | residual activity [19] 65% | residual activity [20] 85%
